Laboratory results from ChEMBL document CHEMBL1201861, “Genomics of Drug Sensitity in Cancer screening data, Wellcome Trust Sanger Institute”.

Key:
Experiment in all cases: cells
CP66-MEL = format: functional, cell-based, Homo sapiens; conditions: Homo sapiens, CP66-MEL;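 further: growth inhibition of CP66-MEL cells determined in a cell viability assay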
Description: SANGER: Inhibition of human CP66-MEL cell growth in a cell viability assay.

D-336MG = format: functional, cell-based, Homo sapiens; conditions: Homo sapiens, D-336MG
Description: SANGER: Inhibition of human D-336MG cell growth in a cell viability assay.

ETK-1 = format: functional, cell-based, Homo sapiens; conditions: Homo sapiens, ETK-1;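 further: growth inhibition of human ETK-1 cells, read out with a cell viability assay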
Description: SANGER: Inhibition of human ETK-1 cell growth in a cell viability assay.

EW-3 = format: functional, cell-based; conditions: Homo sapiens;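 further: cell viability assay read-out, IC50 reflects inhibition of growth of the EW-3 cells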
Description: SANGER: Inhibition of human EW-3 cell growth in a cell viability assay.

GCIY = format: functional, cell-based, Homo sapiens; conditions: Homo sapiens, GCIY;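 further: growth inhibition of the human GCIY cell line, read out by a cell viability assay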
Description: SANGER: Inhibition of human GCIY cell growth in a cell viability assay.

HCC2157 = format: functional, cell-based; conditions: Homo sapiens;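 further: growth inhibition of the cancer cell line, read out as cell viability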
Description: SANGER: Inhibition of human HCC2157 cell growth in a cell viability assay.

K562 = format: functional, cell-based; conditions: Homo sapiens
Description: SANGER: Inhibition of human K-562 cell growth in a cell viability assay.

KMOE-2 = format: functional, cell-based; conditions: Homo sapiens;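 further: growth inhibition of human KMOE-2 cells, read out with a cell viability assay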
Description: SANGER: Inhibition of human KMOE-2 cell growth in a cell viability assay.

LB831-BLC = format: functional, cell-based, Homo sapiens; conditions: Homo sapiens, LB831-BLC;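 further: growth inhibition of LB831-BLC cells, read out with a cell viability assay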
Description: SANGER: Inhibition of human LB831-BLC cell growth in a cell viability assay.

LU-139 = format: functional, cell-based; conditions: Homo sapiens
Description: SANGER: Inhibition of human LU-139 cell growth in a cell viability assay.

MV4-11 = format: functional, cell-based, MV-4-11; conditions: Homo sapiens;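 further: cell viability readout measuring growth inhibition of human MV-4-11 cells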
Description: SANGER: Inhibition of human MV-4-11 cell growth in a cell viability assay.

NB69 = format: functional, cell-based, Homo sapiens; conditions: Homo sapiens, NB69;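 further: growth inhibition of NB69 cells, determined by a cell viability assay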
Description: SANGER: Inhibition of human NB69 cell growth in a cell viability assay.

NCI-H1581 = format: functional, cell-based, Homo sapiens; conditions: Homo sapiens, NCI-H1581;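 further: cell growth inhibition read out by a viability assay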
Description: SANGER: Inhibition of human NCI-H1581 cell growth in a cell viability assay.

NCI-H1838 = format: functional, cell-based, Homo sapiens; conditions: Homo sapiens, NCI-H1838;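 further: growth inhibition of NCI-H1838 cells, determined with a cell viability readout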
Description: SANGER: Inhibition of human NCI-H1838 cell growth in a cell viability assay.

NEC8 = format: functional, cell-based, Homo sapiens; conditions: Homo sapiens, NEC8;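 further: growth inhibition of human NEC8 cells, read out by a cell viability assay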
Description: SANGER: Inhibition of human NEC8 cell growth in a cell viability assay.

NTERA-2-cl-D1 = format: functional, cell-based, Homo sapiens; conditions: Homo sapiens, NTERA-2-cl-D1;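 further: inhibition of cell growth, measured with a cell viability assay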
Description: SANGER: Inhibition of human NTERA-S-cl-D1 cell growth in a cell viability assay.

PSN1 = format: functional, cell-based, Homo sapiens; conditions: Homo sapiens, PSN1;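 further: suppression of growth of human PSN1 cells, read out by a cell viability assay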
Description: SANGER: Inhibition of human PSN1 cell growth in a cell viability assay.

SBC-1 = format: functional, cell-based; conditions: Homo sapiens;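 further: cell viability assay measuring growth inhibition of the SBC-1 cell line, IC50 being the concentration that halves growth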
Description: SANGER: Inhibition of human SBC-1 cell growth in a cell viability assay.

A253 cell line = format: functional, cell-based, Homo sapiens; conditions: Homo sapiens, A253;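 further: growth inhibition of A253 cells, read out with a cell viability assay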
Description: SANGER: Inhibition of human A253 cell growth in a cell viability assay.

A3-KAW = format: functional, cell-based; conditions: Homo sapiens;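 further: growth inhibition of human A3-KAW cells, read out with a cell viability assay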
Description: SANGER: Inhibition of human A3-KAW cell growth in a cell viability assay.

ALL-PO = format: functional, cell-based; conditions: Homo sapiens;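 further: growth inhibition of ALL-PO cells, read out by a cell viability assay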
Description: SANGER: Inhibition of human ALL-PO cell growth in a cell viability assay.

BE-13 = format: functional, cell-based; conditions: Homo sapiens;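 further: growth inhibition of human BE-13 cells, measured with a cell viability assay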
Description: SANGER: Inhibition of human BE-13 cell growth in a cell viability assay.

SCC-15 = format: functional, cell-based, Homo sapiens; conditions: Homo sapiens, SCC-15;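 further: growth inhibition of SCC-15 cells, read out with a cell viability assay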
Description: SANGER: Inhibition of human SCC-15 cell growth in a cell viability assay.

SMILES | IC50 (CP66-MEL) [nM] | IC50 (D-336MG) [nM] | IC50 (ETK-1) [nM] | IC50 (EW-3) [nM] | IC50 (GCIY) [nM] | IC50 (HCC2157) [nM] | IC50 (K562) [nM] | IC50 (KMOE-2) [nM] | IC50 (LB831-BLC) [nM] | IC50 (LU-139) [nM] | IC50 (MV4-11) [nM] | IC50 (NB69) [nM] | IC50 (NCI-H1581) [nM] | IC50 (NCI-H1838) [nM] | IC50 (NEC8) [nM] | IC50 (NTERA-2-cl-D1) [nM] | IC50 (PSN1) [nM] | IC50 (SBC-1) [nM] | IC50 (A253 cell line) [nM] | IC50 (A3-KAW) [nM] | further results
C=C1C(=O)O[C@@H]2C3O[C@]3(C)CC/C=C(\C)CC[C@@H]12 (stereo partly drawn) | > 5000 | > 5000 | > 5000 | > 5000 | > 5000 | > 5000 | > 5000 | > 5000 | > 5000 | > 5000 | > 5000 | > 5000 | > 5000 | > 5000 | > 5000 | > 5000 | > 5000 | > 5000 | > 5000 | 2290 | IC50 (ALL-PO): > 5000 nM; IC50 (BE-13): > 5000 nM
CC1=C2C[C@H]3[C@@H](CC=C4C[C@@H](O)CC[C@@]43C)[C@@H]2CC[C@]12O[C@@H]1C[C@H](C)CN[C@H]1[C@H]2C [CYCLOPAMINE] | > 16000 | > 16000 | > 16000 | > 16000 | > 16000 | > 16000 | > 16000 | > 16000 | > 16000 | > 16000 | > 16000 | > 16000 | > 16000 | > 16000 | > 16000 | > 16000 | > 16000 | > 16000 | > 16000 | > 16000 | IC50 (SCC-15): > 16000 nM; IC50 (ALL-PO): 11800 nM; IC50 (BE-13): > 16000 nM
CS(=O)(=O)CCNCc1ccc(-c2ccc3ncnc(Nc4ccc(OCc5cccc(F)c5)c(Cl)c4)c3c2)o1 [LAPATINIB] | > 2000 | > 2000 | > 2000 | > 2000 | > 2000 | > 2000 | > 2000 | > 2000 | > 2000 | > 2000 | > 2000 | > 2000 | > 2000 | > 2000 | > 2000 | > 2000 | > 2000 | > 2000 | 1970 | > 2000 | IC50 (SCC-15): > 2000 nM; IC50 (ALL-PO): > 2000 nM; IC50 (BE-13): > 2000 nM
CCc1nc(N)nc(N)c1-c1ccc(Cl)cc1 [PYRIMETHAMINE] | > 20000 | > 20000 | 4100 | > 20000 | > 20000 | > 20000 | > 20000 | > 20000 | > 20000 | 11100 | 11400 | > 20000 | > 20000 | > 20000 | 1500 | > 20000 | 2860 | > 20000 | > 20000 | 9440 | IC50 (ALL-PO): 1190 nM; IC50 (BE-13): 7770 nM
O=C(/C=C/c1ccccc1)NC(NC(=S)Nc1cccc2cccnc12)C(Cl)(Cl)Cl (stereo not drawn) [SALUBRINAL] | > 16000 | 15100 | > 16000 | > 16000 | > 16000 | > 16000 | 11000 | 13100 | > 16000 | 14000 | > 16000 | > 16000 | > 16000 | > 16000 | 6050 | 12900 | > 16000 | > 16000 | > 16000 | 8430 | IC50 (SCC-15): > 16000 nM; IC50 (ALL-PO): 4090 nM; IC50 (BE-13): 8270 nM
CN1CCN(CCOc2cc(OC3CCOCC3)c3c(Nc4c(Cl)ccc5c4OCO5)ncnc3c2)CC1 [SARACATINIB] | > 2000 | 503 | > 2000 | > 2000 | > 2000 | > 2000 | 450 | > 2000 | > 2000 | > 2000 | > 2000 | 1370 | > 2000 | > 2000 | > 2000 | > 2000 | > 2000 | > 2000 | > 2000 | > 2000 | IC50 (SCC-15): > 2000 nM; IC50 (ALL-PO): > 2000 nM; IC50 (BE-13): > 2000 nM
CO[C@H]1C[C@@H]2CC[C@@H](C)[C@@](O)(O2)C(=O)C(=O)N2CCCC[C@H]2C(=O)O[C@H]([C@H](C)C[C@@H]2CC[C@@H](O)[C@H](OC)C2)CC(=O)[C@H](C)/C=C(\C)[C@@H](O)[C@@H](OC)C(=O)[C@H](C)C[C@H](C)/C=C/C=C/C=C/1C [SIROLIMUS] | > 100 | > 100 | 2.82 | > 100 | 53.5 | > 100 | > 100 | > 100 | > 100 | > 100 | 83.7 | > 100 | > 100 | > 100 | > 100 | 0.443 | > 100 | > 100 | > 100 | 2.99 | IC50 (SCC-15): > 100 nM; IC50 (ALL-PO): > 100 nM; IC50 (BE-13): 2.99 nM
CNC(=O)c1cc(Oc2ccc(NC(=O)Nc3ccc(Cl)c(C(F)(F)F)c3)cc2)ccn1 [SORAFENIB] | > 4000 | > 4000 | > 4000 | > 4000 | > 4000 | > 4000 | > 4000 | 2810 | > 4000 | > 4000 | < 15.6 | > 4000 | > 4000 | > 4000 | > 4000 | > 4000 | > 4000 | > 4000 | > 4000 | 1880 | IC50 (SCC-15): > 4000 nM; IC50 (ALL-PO): 31.8 nM; IC50 (BE-13): 2700 nM
CCC(=O)N1CCN(c2ccc(-n3c(=O)ccc4cnc5ccc(-c6cnc7ccccc7c6)cc5c43)cc2C(F)(F)F)CC1 [TORIN1] | 314 | 266 | < 4.69 | 217 | 10.1 | 340 | 91.2 | 275 | 161 | 130 | 70 | 322 | 297 | > 1200 | 562 | 32.3 | 14.1 | 111 | 989 | 62.2 | IC50 (SCC-15): > 1200 nM; IC50 (ALL-PO): 49.6 nM; IC50 (BE-13): 37.6 nM
Cc1cc(Nc2cc(N3CCN(C)CC3)nc(Sc3ccc(NC(=O)C4CC4)cc3)n2)n[nH]1 [TOZASERTIB] | > 2000 | > 2000 | 1140 | > 2000 | > 2000 | > 2000 | 435 | > 2000 | > 2000 | > 2000 | 77.8 | > 2000 | > 2000 | > 2000 | > 2000 | 14.3 | 220 | 1130 | > 2000 | > 2000 | IC50 (SCC-15): > 2000 nM; IC50 (ALL-PO): 882 nM; IC50 (BE-13): 3.38 nM
